Results reported in ChEMBL document CHEMBL5543140 (J Med Chem, 2024).
The source made the active and inactive calls. The rule behind the calls is not given here.

What was measured:
[1] = molecular target: 5-hydroxytryptamine receptor 6 (Homo sapiens, UniProt P50406); assay: Displacement of [3H]LSD from 5-HT6 receptor (unknown origin) assessed as inhibition binding
[2] = molecular target: 5-hydroxytryptamine receptor 3A (Homo sapiens) (UniProt P46098); assay: Binding affinity to human 5-HT3 receptor (unknown origin) at 10 uM by radioligand displacement assay
Sequence of 5-hydroxytryptamine receptor 3A (Homo sapiens) (P46098 whole entry): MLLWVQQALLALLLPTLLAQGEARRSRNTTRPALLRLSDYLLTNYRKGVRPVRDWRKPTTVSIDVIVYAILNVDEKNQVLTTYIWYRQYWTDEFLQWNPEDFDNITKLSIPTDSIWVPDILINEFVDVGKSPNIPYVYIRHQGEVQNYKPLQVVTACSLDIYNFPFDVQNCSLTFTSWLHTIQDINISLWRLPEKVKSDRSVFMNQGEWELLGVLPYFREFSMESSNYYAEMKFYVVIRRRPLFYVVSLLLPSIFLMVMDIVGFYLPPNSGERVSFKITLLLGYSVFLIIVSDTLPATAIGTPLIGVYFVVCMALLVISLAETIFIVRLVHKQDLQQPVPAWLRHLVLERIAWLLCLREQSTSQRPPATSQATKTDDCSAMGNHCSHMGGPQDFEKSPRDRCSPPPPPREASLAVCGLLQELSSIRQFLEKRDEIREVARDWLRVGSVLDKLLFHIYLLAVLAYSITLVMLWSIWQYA

[3] = molecular target: Muscarinic acetylcholine receptor M4 (Homo sapiens) (UniProt P08173); assay: Displacement of [3H]4-DAMP from human recombinant muscarinic M4 receptor expressed in HEK293 cells at 10 uM incubated for 60 mins by radiometric based scintillation counter assay relative to control; assay type: cell-based
Sequence of Muscarinic acetylcholine receptor M4 (Homo sapiens) (P08173 whole entry): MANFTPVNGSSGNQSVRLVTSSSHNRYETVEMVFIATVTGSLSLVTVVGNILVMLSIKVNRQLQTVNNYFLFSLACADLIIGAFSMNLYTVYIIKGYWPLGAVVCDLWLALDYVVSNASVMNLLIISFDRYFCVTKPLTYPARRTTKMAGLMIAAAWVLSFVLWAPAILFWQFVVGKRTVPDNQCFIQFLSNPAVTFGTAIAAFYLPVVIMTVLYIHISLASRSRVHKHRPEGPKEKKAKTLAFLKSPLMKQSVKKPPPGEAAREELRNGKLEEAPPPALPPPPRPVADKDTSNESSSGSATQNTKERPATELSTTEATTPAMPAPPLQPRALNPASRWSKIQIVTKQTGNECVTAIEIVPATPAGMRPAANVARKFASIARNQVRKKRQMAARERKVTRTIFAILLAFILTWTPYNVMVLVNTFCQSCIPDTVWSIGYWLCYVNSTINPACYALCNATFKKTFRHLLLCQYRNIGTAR

[4] = molecular target: Alpha-2A adrenergic receptor (Homo sapiens, UniProt P08913); assay: Displacement of [3H]-rauwolscine from human recombinant adrenergic alpha-2A receptor expressed in CHO-K1 cells incubated for 60 mins by […] analysis relative to control; assay type: cell-based
Sequence of Alpha-2A adrenergic receptor (P08913 whole entry): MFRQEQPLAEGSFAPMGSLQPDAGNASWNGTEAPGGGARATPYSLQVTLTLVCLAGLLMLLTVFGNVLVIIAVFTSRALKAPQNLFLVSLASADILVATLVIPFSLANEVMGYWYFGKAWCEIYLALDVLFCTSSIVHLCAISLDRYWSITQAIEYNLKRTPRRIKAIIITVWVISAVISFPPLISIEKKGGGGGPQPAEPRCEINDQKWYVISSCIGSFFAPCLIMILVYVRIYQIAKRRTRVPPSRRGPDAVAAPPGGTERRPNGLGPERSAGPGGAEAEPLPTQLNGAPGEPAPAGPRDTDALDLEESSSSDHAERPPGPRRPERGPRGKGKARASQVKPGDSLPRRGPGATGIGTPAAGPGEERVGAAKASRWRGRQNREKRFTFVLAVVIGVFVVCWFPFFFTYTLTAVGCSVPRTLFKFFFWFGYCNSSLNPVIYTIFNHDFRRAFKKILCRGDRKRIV

[5] = molecular target: Alpha-2A adrenergic receptor (Homo sapiens) (UniProt P08913); assay: Agonist activity at human recombinant adrenergic alpha-2A receptor expressed in CHO-K1 cells co-transfected with 22F-Glosensor assessed as maximal inhibition of cAMP production measured after 30 mins incubation by Microbeta2Micro-plate counter analysis relative to clonidine; assay type: functional, cell-based; details: filed as agonist
Sequence of Alpha-2A adrenergic receptor (Homo sapiens) (P08913 whole entry): as above

Mus musculus [6] = assay: Psychedelic effect in C57BL/6J mouse assessed as maximal number of 5-HT2A receptor dependent head-twitch responses by visual observation at 1 mg/kg, sc (reference value: 3); assay type: functional
Mus musculus [7] = assay: Psychedelic effect in C57BL/6J mouse assessed as induction of 5-HT2A receptor dependent head-twitch responses by visual observation at 1 to 10 mg/kg, po measured for 120 to 150 mins relative to DOI; assay type: functional, organism-based; details: dose 1-10 mg/kg, time lower […], time upper 150.0 min
Mus musculus [8] = assay: Psychedelic effect in C57BL/6J mouse assessed as number of 5-HT2A receptor dependent head-twitch responses by visual observation at 3 mg/kg, sc in presence of ketanserin 1 mg/kg, sc measured after 24 hrs; assay type: functional
[9] = Ex vivo binding in C57BL/6J mouse brain frontal cortex assessed as specific binding [3H]Cimbi-36 at 1 mg/kg, sc measured after 100 mins by liquid scintillation counting analysis (reference value: 1092 +/- 53); assay type: functional; details: 1.667 h
[10] = Ex vivo binding in C57BL/6J mouse brain frontal cortex assessed as specific binding [3H]Cimbi-36 at 1 mg/kg, sc measured after 360 mins by liquid scintillation counting analysis (reference value: 1092 +/- 53); assay type: functional; details: 6 h
[11] = Ex vivo binding in C57BL/6J mouse brain frontal cortex assessed as inhibition of [3H]Cimbi-36 binding at 1 mg/kg, sc measured after 10 mins by liquid scintillation counting analysis (reference value: 0%); assay type: functional
[12] = Ex vivo binding in C57BL/6J mouse brain frontal cortex assessed as inhibition of [3H]Cimbi-36 binding at 1 mg/kg, sc measured after 160 mins by liquid scintillation counting analysis (reference value: 0%); assay type: functional; details: 2.667 h
[13] = Ex vivo binding in C57BL/6J mouse brain frontal cortex assessed as inhibition of [3H]Cimbi-36 binding at 1 mg/kg, sc measured after 300 mins by liquid scintillation counting analysis (reference value: 0%); assay type: functional; details: 5 h
Mus musculus [14] = assay: Induction of neuroplasticity in C57BL/6J mouse assessed as increase in BDNF mRNA expression in brain frontal cortex at 3 mg/kg, sc single dose by RT-PCR analysis; assay type: functional, organism-based
Mus musculus [15] = assay: Induction of neuroplasticity in C57BL/6J mouse assessed as increase in c-Fos mRNA expression in brain frontal cortex at 3 mg/kg, sc single dose by RT-PCR analysis; assay type: functional, organism-based
Hippocampus [16] = assay: Induction of neuroplasticity in C57BL/6J mouse assessed as increase in CREB1 mRNA expression in brain hippocampus at 3 mg/kg, sc single dose by RT-PCR analysis; assay type: functional, organism-based
Hippocampus [17] = assay: Induction of neuroplasticity in C57BL/6J mouse assessed as increase in mTOR mRNA expression in brain hippocampus at 0.3 mg/kg, sc single dose by RT-PCR analysis; assay type: functional, organism-based
Hippocampus [18] = assay: Induction of neuroplasticity in C57BL/6J mouse assessed as increase in c-Fos mRNA expression in brain hippocampus at 0.3 mg/kg, sc single dose by RT-PCR analysis; assay type: functional, organism-based
[19] = Drug metabolism in human hepatocytes at 10 uM by HRAMS analysis; assay type: ADME, cell-based, Hepatocyte
[20] = Tmax in Wistar rat plasma at 1 mg/kg, iv measured upto 48 hrs; assay type: ADME, organism-based
[21] = AUClast in Wistar rat plasma at 1 mg/kg, iv measured upto 48 hrs; assay type: ADME, organism-based
[22] = Half life in Wistar rat plasma at 5 mg/kg, po measured upto 48 hrs; assay type: ADME, organism-based
[23] = Tmax in Wistar rat brain at 1 mg/kg, iv measured upto 48 hrs; assay type: ADME, organism-based
[24] = Half life in Wistar rat brain at 5 mg/kg, po measured upto 48 hrs; assay type: ADME, organism-based
[25] = AUCinf in Wistar rat brain at 5 mg/kg, po measured upto 48 hrs; assay type: ADME, organism-based
[26] = Volume of distribution at steady state in male Sprague-Dawley rat plasma at 1 mg/kg, iv measured upto 8 hrs by LC-MS/MS analysis; assay type: ADME, organism-based; details: read-out: Vdss
[27] = Cmax in male Sprague-Dawley rat brain at 1 mg/kg, iv measured upto 8 hrs by LC-MS/MS analysis; assay type: ADME, organism-based
[28] = Half life in male Sprague-Dawley rat CSF at 1 mg/kg, iv measured upto 8 hrs by LC-MS/MS analysis; assay type: ADME, organism-based, Cerebrospinal fluid
[29] = AUClast in male Sprague-Dawley rat CSF at 1 mg/kg, iv measured upto 8 hrs by LC-MS/MS analysis; assay type: ADME, organism-based, Cerebrospinal fluid
[30] = AUCinf in male Sprague-Dawley rat CSF at 1 mg/kg, iv measured upto 8 hrs by LC-MS/MS analysis; assay type: ADME, organism-based, Cerebrospinal fluid
[31] = CSF to brain ratio in male Sprague-Dawley rat at 1 mg/kg, iv measured upto 8 hrs by LC-MS/MS analysis; assay type: ADME, organism-based; details: in vivo
Brain = assay: Drug binding in male Sprague-Dawley rat brain homogenate at 1 mg/kg, iv measured upto 8 hrs by LC-MS/MS analysis; assay type: ADME, organism-based; details: in vivo
[32] = Volume of distribution at steady state in beagle dog at 0.4 mg/kg, iv measured upto 24 hrs; assay type: ADME, organism-based, Canis lupus familiaris; details: in vivo, read-out: Vdss
[33] = Clearance in beagle dog at 0.4 mg/kg, iv measured upto 24 hrs; assay type: ADME, organism-based, Canis lupus familiaris; details: in vivo
[34] = AUClast in beagle dog at 2 mg/kg, po measured upto 24 hrs; assay type: ADME, organism-based, Canis lupus familiaris; details: in vivo
[35] = Oral bioavailability in beagle dog at 2 mg/kg measured upto 24 hrs; assay type: ADME, organism-based, Canis lupus familiaris; details: in vivo

Sequence of 5-hydroxytryptamine receptor 6 (P50406 whole entry): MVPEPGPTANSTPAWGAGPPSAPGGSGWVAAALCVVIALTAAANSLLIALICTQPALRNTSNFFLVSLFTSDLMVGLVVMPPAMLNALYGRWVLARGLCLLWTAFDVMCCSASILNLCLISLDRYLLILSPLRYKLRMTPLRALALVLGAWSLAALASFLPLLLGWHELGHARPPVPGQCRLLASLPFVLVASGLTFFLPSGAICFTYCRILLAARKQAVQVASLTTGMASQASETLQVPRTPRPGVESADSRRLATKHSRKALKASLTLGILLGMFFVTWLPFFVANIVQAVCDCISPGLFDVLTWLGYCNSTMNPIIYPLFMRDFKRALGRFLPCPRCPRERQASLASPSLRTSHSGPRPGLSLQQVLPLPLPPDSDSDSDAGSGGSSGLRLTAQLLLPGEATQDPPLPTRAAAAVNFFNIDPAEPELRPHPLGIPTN

COc1cc([Se]C(F)(F)F)c(OC)cc1CCN.Cl
Ki [1]: 1300 nM
Activity [2]: inactive
inhibition [3]: 86%
Ki [4]: 72 nM
Emax [5]: 56%
Activity (Mus musculus [6]): 17
Activity (Mus musculus [7]): Active
Activity (Mus musculus [8]): 0.17
Activity [9]: 820
Activity [10]: 820
inhibition in vivo at 1 mg/kg [11]: 9%
inhibition in vivo at 1 mg/kg [12]: 33%
inhibition in vivo at 1 mg/kg [13]: 22%
Activity (Mus musculus [14]): Active
Activity (Mus musculus [15]): Active
Activity (Hippocampus [16]): inactive
Activity (Hippocampus [17]): inactive
Activity (Hippocampus [18]): inactive
Drug metabolism [19]: Metabolite_Notdetected
Tmax [20]: 4.98 min
AUC(0-t) at 48 h [21]: 42.2 ng·h/mL
half-life [22]: 3.53 h
Tmax [23]: 0.5 h
half-life [24]: 4.71 h
AUC(0-inf) [25]: 2880 ng·h/mL
Vd [26]: 5.67 L/kg
Cmax [27]: 1490 ng/mL
half-life [28]: 1.26 h
AUC(0-t) at 8 h [29]: 49.9 ng·h/mL
AUC(0-inf) [30]: 51.4 ng·h/mL
Ratio [31]: 0.016
Activity (Brain): > 98%
Vd [32]: 5.29 L/kg
clearance [33]: 15.8 mL/min/kg
AUC(0-t) at 24 h [34]: 2720 ng·h/mL
bioavailability [35]: 138%
